{
  "source": "patent US20180346518A1",
  "about": "“LYSOBACTIN FOR USE IN THE TREATMENT OF BOVINE MASTITIS” (BAYER ANIMAL HEALTH GMBH, priority 2015, published 2018)",
  "key": {"[1]": {"test_system": "Staphylococcus aureus", "test": "Staphylococcus aureus acute mouse mastitis model", "type": "in vivo, lactating CD-1 mice", "description": "The efficacy of lysobactin (formulated in a hydrogel at pH 4.7) was tested in a Staphylococcus aureus acute mouse mastitis model established at the University of Sherbrooke, Canada (Broui-llette et al, Vet. Microbiol. (2004) 4:253-262), that is hereby incorporated by reference. Both the abdominal mammary glands (L4 and R4) of lactating CD-1 mice were intramammarily infected with 100 CFU (colony forming units) of S. aureus. The mice were treated intramammarily with lysobactin four hours after infection. Each treatment group contained at least 3 mice (6 quarters) 14 hours later (18 hours after inoculation) mice were sacrificed, mammary glands were harvested and the CFU content evaluated by plating 10-fold serial dilutions of mammary gland homogenates. The CFU content was expressed as log10 count. The detection limit was 200 CFU/g of gland. Glands with less than 200 CFU/g were regarded as cleared."}, "[2]": {"test_system": "Staphylococcus aureus ATCC 29740", "test": "in vitro kill kinetics in milk", "type": "cell-based", "conditions": "at 24 h; full-fat milk; 4, 8, 16, 32 and 64 μg/mL", "description": "(§1) In order to assess the ability of lysobactin to kill bacteria in milk, flasks containing different concentrations of lysobactin in store-bought full-fat milk were inoculated with 1-2×10^6 colony forming units/ml of a representative strain of either Staphylococcus aureus or Streptococcus uberis. The flasks were incubated for 24-48 hours in a shaking water bath at 35+/−2° C., and viable bacterial counts in each flask were determined at several time-points by diluting and plating samples on agar plates. A reduction of the number of viable bacteria in the initial inoculum by at least 99.9% is defined as bactericidal activity.\n(§2) The kill kinetics of lysobactin against Staphylococcus aureus ATCC 29740 and Streptococcus uberis ATCC 27958 in milk were determined for concentrations of lysobactin of 4, 8, 16, 32 and 64 μg/mL. Results are depicted in FIG. 1 (CFU: colony forming units). A cidality at 24 h and 48 h, respectively, can be postulated for S. aureus and S. uberis."}, "[3]": {"test_system": "Streptococcus uberis ATCC 27958", "test": "in vitro kill kinetics in milk", "type": "cell-based", "conditions": "at 48 h; full-fat milk; 4, 8, 16, 32 and 64 μg/mL", "description": "as §1, §2"}, "[4]": {"test_system": "Streptococcus uberis", "test": "Streptococcus uberis challenge mouse mastitis model", "type": "in vivo, lactating mice", "conditions": "100, 200, 400 or 800 μg/gland hydrogel, 18 h after infection; all glands, with one exception in the highest dosing group", "description": "The efficacy of lysobactin (formulated in a hydrogel at pH 4.7) was tested in a Streptococcus uberis challenge mouse mastitis model. Twenty lactating mice were experimentally infected on the fourth pair of mammary glands with S. uberis around 12-15 days after birth of the offspring. Four hours after inoculation, groups of four mice were treated on the same glands with lysobactin at 100, 200, 400, or 800 μg/gland formulated as hydrogel. The fifth group was treated solely with the hydrogel vehicle as negative control. Eighteen hours after infection the animals were euthanized, the glands were removed, homogenized, and bacterial colony forming units (CFUs) were determined by established microbiological methods. Subsequently CFU/mL homogenate as well as CFU/g of gland were calculated. The detection limit was approximately 100 CFU/g of gland. Antimicrobial activity of lysobactin against Strep uberis was determined by comparison of the mean CFUs/gland of the different dosing groups and the negative control group."}, "[5]": {"test_system": "Staphylococcus aureus", "test": "dairy cow udder infection model with S. aureus", "type": "in vivo, lactating dairy cows", "description": "Fifteen healthy lactating dairy cows were experimentally infected with the mastitis pathogen Staphylococcus aureus on all four udder quarters. […] Treatments were randomly assigned to 42 udder quarters in total, either 50 mg lysobactin per quarter (in 11 quarters), or 150 mg Lysobactin (in 11 quarters), or Ubrolexin® (in 9 quarters), or saline solution (in 11 quarters). Only udder quarters that were bacteriologically positive for the challenge organism immediately prior to treatment (n=42) were eligible for assessment of microbiological and clinical cure. The diseased quarters were treated with these intramammary formulations two times with an interval of 24 hours in between. Udders were clinically examined and milk samples were taken before treatment and several times after that until three weeks after the second administration. Milk was inspected visually for deviation in its consistency and samples were evaluated for presence of the challenge organism and for somatic cell count to confirm the diagnosis mastitis. Diseased udder quarters were considered microbiologically cured when Staphylococcus aureus found in milk samples shortly before treatment could not be isolated from any milk sample taken within the time period between the third and the twenty-first day after the second treatment. Clinical cure was achieved when the local symptoms of mastitis had completely disappeared, and recovery of somatic cell counts (SCC) as parameter of udder inflammation was attained when all counts remained below 500.000 cells per mL of milk in the period mentioned above."}, "[6]": {"conditions": "50 mg per quarter, Day 3 after second treatment"}, "[7]": {"conditions": "50 mg per quarter, Day 21 after second treatment"}, "[8]": {"conditions": "150 mg per quarter, Day 3 after second treatment"}, "[9]": {"conditions": "150 mg per quarter, Day 21 after second treatment"}},
  "note": "Numbered stars: 1 amine (or outer) side, 2 acyl side, 3 side chain; on linkers, the order of the positions; unused ones are H or OH. Bridge positions count the residues as written; N and C are the ends. Square brackets hold non-standard residues; d marks the D form. Peptide text beside a SMILES is read from it. Phe(3R-OH) = O=C([C@@H](N[*:1])[C@H](O[*:3])c1ccccc1)[*:2]; Asn(3S-OH) = NC(=O)[C@@H](O)[C@H](N)C(=O)O; Leu(3R-OH) = CC(C)[C@@H](O)[C@H](N)C(=O)O; aThr = C[C@H](O)[C@H](N)C(=O)O",
  "data": [
    {"smiles": "CC[C@H](C)[C@@H]1NC(=O)[C@@H](CCCNC(=N)N)NC(=O)[C@H](CC(C)C)NC(=O)[C@H]([C@H](O)C(C)C)NC(=O)[C@@H](NC(=O)[C@H](CC(C)C)NC(=O)[C@H](N)CC(C)C)[C@@H](c2ccccc2)OC(=O)[C@H](CO)NC(=O)[C@H]([C@H](O)C(N)=O)NC(=O)CNC(=O)[C@H]([C@H](C)O)NC1=O", "note": "[lysobactin] (H-[dL]L[Phe(3R-OH)][Leu(3R-OH)]L[dR]I[aThr]G[Asn(3S-OH)]S; ester 3-C)", "values": [
      {"measurement": "reduction of median CFU content of mammary glands", "setting": "[1]; 50 μg intramammary, hydrogel pH 4.7, 4 h after infection, glands harvested 18 h after inoculation", "result": "ca. 4 log10"},
      {"measurement": "clearance of infection from glands", "setting": "[1]; 400 μg intramammary, hydrogel pH 4.7, cleared = less than 200 CFU/g of gland", "result": "eliminates the infection from all infected glands"},
      {"measurement": "kill kinetics, bactericidal activity (cidality)", "setting": "[2]", "result": "cidality"},
      {"measurement": "kill kinetics, bactericidal activity (cidality)", "setting": "[3]", "result": "cidality"},
      {"measurement": "bacterial counts in glands", "setting": "[4]", "result": "< 10^2 CFU/g"},
      {"measurement": "microbiological cure rate", "setting": "[5]; 50 mg per quarter, 2 treatments 24 h apart, Day 3 after second treatment", "result": 73, "unit": "%"},
      {"measurement": "SCC recovery rate", "setting": "[5]; [6]", "result": 36, "unit": "%"},
      {"measurement": "local clinical cure rate", "setting": "[5]; [6]", "result": 45, "unit": "%"},
      {"measurement": "SCC recovery rate", "setting": "[5]; [7]", "result": 45, "unit": "%"},
      {"measurement": "local clinical cure rate", "setting": "[5]; [7]", "result": 73, "unit": "%"},
      {"measurement": "microbiological cure rate", "setting": "[5]; [7]", "result": 27, "unit": "%"},
      {"measurement": "SCC recovery rate", "setting": "[5]; [8]", "result": 36, "unit": "%"},
      {"measurement": "local clinical cure rate", "setting": "[5]; [8]", "result": 37, "unit": "%"},
      {"measurement": "microbiological cure rate", "setting": "[5]; [8]", "result": 73, "unit": "%"},
      {"measurement": "SCC recovery rate", "setting": "[5]; [9]", "result": 91, "unit": "%"},
      {"measurement": "local clinical cure rate", "setting": "[5]; [9]", "result": 82, "unit": "%"},
      {"measurement": "microbiological cure rate", "setting": "[5]; [9]", "result": 45, "unit": "%"}
    ]}
  ]
}
